Test [1] has as its system circadian rhythms. The conditions noted are these: in vivo locomotor activity of a variety of species; cited from earlier work.
Test [2] has as its system circadian rhythms. The conditions noted are these: cellular reporter assays; cited from earlier work. A general note: In a reporter assay the amount or activity of a reporter protein is the signal.
The conditions of test [3]: ob/ob and diet-induced obese mouse, daily administration; cited from earlier work.
For test [4] the following is noted: conditioned place preference with cocaine and alcohol reinstatement; cited from earlier work.
For test [5], the target named is human recombinant GST cleaved CSNK1D (Homo sapiens (Human), UniProt P48730). Kind of test: Purified enzyme assay (ADP-Glo Kinase Assay). The following applies: 2 nM CSNK1D, peptide substrate 150 μM, ATP 20 μM, 45 minutes room temperature. It is filed as biochemical.
The target in test [6] is human CSNK1D tagged with nanoluciferase (Homo sapiens (Human), UniProt P48730). Put plainly: Whole Cell nBRET CSNK1D Binding Assay. The following applies: living CHO cells stably expressing human CSNK1D-nanoluciferase; NanoBret tracer 130 nM; 2 hours 37° C.; read-out: CSNK1D BRET IC50. The procedure, abridged: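 Live CHO cells stably expressing nanoluciferase-tagged CSNK1D, seeded in serum-free OptiMEM, received compound dose-response plus NanoBRET tracer (130 nM) for 2 h at 37 °C.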
For orientation: BRET reads energy transfer from a luciferase to a nearby fluorophore.

pIC50: −log10 of the molar value. Where two headings read alike, the source gives them in different places.

The term AC50 denotes the concentration at which the activity in the assay is half-maximal. A word on the pIC50: it is the IC50 on a negative log10 scale, so that one unit is a factor of ten.

Chain of human CSNK1D tagged with nanoluciferase (P48730 whole entry): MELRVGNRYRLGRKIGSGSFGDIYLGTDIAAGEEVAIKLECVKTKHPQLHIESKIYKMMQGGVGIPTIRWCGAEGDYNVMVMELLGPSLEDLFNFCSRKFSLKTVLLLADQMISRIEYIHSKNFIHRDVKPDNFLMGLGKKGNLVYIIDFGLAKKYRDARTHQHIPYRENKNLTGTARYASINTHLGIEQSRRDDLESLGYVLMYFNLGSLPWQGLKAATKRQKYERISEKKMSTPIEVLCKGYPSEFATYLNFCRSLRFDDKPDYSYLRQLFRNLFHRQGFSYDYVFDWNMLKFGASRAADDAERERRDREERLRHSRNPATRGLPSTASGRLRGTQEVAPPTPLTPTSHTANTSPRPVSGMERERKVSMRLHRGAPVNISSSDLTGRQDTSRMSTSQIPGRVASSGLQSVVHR
Chain of human recombinant GST cleaved CSNK1D (P48730 whole entry): as above

Take `Nc1nccc(-c2c(-c3ccc(F)cc3)ncn2C2CCN(Cc3ccon3)CC2)n1` [PF-5006739]: the “effect on circadian rhythms” value in the test with circadian rhythms [1] and with circadian rhythms [2] was “significantly lengthened circadian rhythms” each time. Further, the “effect on glucose tolerance” value in test [3] is on record as “improve glucose tolerance”.
Take `Nc1nccc(-c2c(-c3ccc(F)cc3)ncn2C2CCCCC2)n1` [PF-670462]: the “efficacy in addiction/substance abuse models” value in test [4] is listed as “have shown efficacy”. Further, the “effect on circadian rhythms” value in the test on circadian rhythms [1] and in the test with circadian rhythms [2] was “significantly lengthened circadian rhythms” throughout.
Take `Cn1cc(-c2ccnc3[nH]ccc23)c(-c2ncc(F)cn2)n1` [Example 43, 4-[3-(5-Fluoropyrimidin-2-yl)-1-methyl-pyrazol-4-yl]-1H-pyrrolo[2,3-b]pyridine]: the AC50 in test [5] stood at 31 nM. In addition, in test [6], the pIC50 is 6.57.
For the compound `Cn1cc(-c2ccnc3[nH]ccc23)c(-c2cccc(F)n2)n1` [Example 29, 4-[3-(6-Fluoro-2-pyridyl)-1-methyl-pyrazol-4-yl]-1H-pyrrolo[2,3-b]pyridine], the AC50 in test [5] turned out to be 7 nM. In addition, the pIC50 in test [6] was 6.73.

Values taken from patent US20230339900A1, “CASEIN KINASE 1 DELTA MODULATORS” (Janssen Pharmaceutica NV, priority 2020, published 2023).
